In brackets after ≈: the same amount, converted by molar mass.
Legend:
Type in all cases: functional
Mycoplasma genitalium [1] = experiment: Antibacterial activity against Mycoplasma genitalium M6151 by broth dilution method; conditions: Mycoplasmoides genitalium
Mycoplasma genitalium [2] = experiment: Antibacterial activity against Mycoplasma genitalium M6286 by broth dilution method; conditions: Mycoplasmoides genitalium
Mycoplasma genitalium [3] = experiment: Antibacterial activity against Mycoplasma genitalium G37 by broth dilution method; conditions: Mycoplasmoides genitalium, read-out: MIC
Mycoplasma genitalium [4] = experiment: Antibacterial activity against Mycoplasma genitalium M6287 by broth dilution method; conditions: Mycoplasmoides genitalium
Mycoplasma genitalium [5] = experiment: Antibacterial activity against Mycoplasma genitalium TW10-5G by broth dilution method; conditions: Mycoplasmoides genitalium, read-out: MIC
Mycoplasma genitalium [6] = experiment: Antibacterial activity against Mycoplasma genitalium TW48-5G by broth dilution method; conditions: Mycoplasmoides genitalium, read-out: MIC
Mycoplasma genitalium [7] = experiment: Antibacterial activity against Mycoplasma genitalium M2341 by broth dilution method; conditions: Mycoplasmoides genitalium
Mycoplasma genitalium [8] = experiment: Antibacterial activity against Mycoplasma genitalium R32 by broth dilution method; conditions: Mycoplasmoides genitalium, read-out: MIC
Mycoplasma genitalium [9] = experiment: Antibacterial activity against Mycoplasma genitalium M6283 by broth dilution method; conditions: Mycoplasmoides genitalium
Mycoplasma genitalium [10] = experiment: Antibacterial activity against Mycoplasma genitalium M6282 by broth dilution method; conditions: Mycoplasmoides genitalium
Mycoplasma genitalium [11] = experiment: Antibacterial activity against Mycoplasma genitalium by broth dilution method; conditions: Mycoplasmoides genitalium; for MIC50: read-out: MIC50; for MIC90: read-out: MIC90
Mycoplasma genitalium [12] = experiment: Antibacterial activity against Mycoplasma genitalium M6090 by broth dilution method; conditions: Mycoplasmoides genitalium
Mycoplasma genitalium [13] = experiment: Antibacterial activity against Mycoplasma genitalium TW10-6G by broth dilution method; conditions: Mycoplasmoides genitalium, read-out: MIC
Mycoplasma genitalium [14] = experiment: Antibacterial activity against Mycoplasma genitalium M2282 by broth dilution method; conditions: Mycoplasmoides genitalium
Mycoplasma genitalium [15] = experiment: Antibacterial activity against Mycoplasma genitalium M2321 by broth dilution method; conditions: Mycoplasmoides genitalium
Mycoplasma genitalium [16] = experiment: Antibacterial activity against Mycoplasma genitalium M6257 by broth dilution method; conditions: Mycoplasmoides genitalium
Mycoplasma genitalium [17] = experiment: Antibacterial activity against Mycoplasma genitalium UTMB-10G by broth dilution method; conditions: Mycoplasmoides genitalium, read-out: MIC
Mycoplasma genitalium [18] = experiment: Antibacterial activity against Mycoplasma genitalium by quantitative TaqMan PCR method; conditions: Mycoplasmoides genitalium
Mycoplasma genitalium [19] = experiment: Antibacterial activity against Mycoplasma genitalium M6328 by broth dilution method; conditions: Mycoplasmoides genitalium
Mycoplasma genitalium [20] = experiment: Antibacterial activity against Mycoplasma genitalium M30 by broth dilution method; conditions: Mycoplasmoides genitalium, read-out: MIC
Mycoplasma genitalium [21] = experiment: Antibacterial activity against Mycoplasma genitalium M6280 by broth dilution method; conditions: Mycoplasmoides genitalium
Mycoplasma genitalium [22] = experiment: Antibacterial activity against Mycoplasma genitalium M6285 by broth dilution method; conditions: Mycoplasmoides genitalium
Mycoplasma genitalium [23] = experiment: Antibacterial activity against Mycoplasma genitalium M6284 by broth dilution method; conditions: Mycoplasmoides genitalium
Mycoplasma genitalium [24] = experiment: Antibacterial activity against Mycoplasma genitalium M2300 by broth dilution method; conditions: Mycoplasmoides genitalium

Row | MIC (Mycoplasma genitalium [1]) [µg/mL] | MIC (Mycoplasma genitalium [2]) [µg/mL] | MIC (Mycoplasma genitalium [3]) [µg/mL] | MIC (Mycoplasma genitalium [4]) [µg/mL] | MIC (Mycoplasma genitalium [5]) [µg/mL] | MIC (Mycoplasma genitalium [6]) [µg/mL] | MIC (Mycoplasma genitalium [7]) [µg/mL] | MIC (Mycoplasma genitalium [8]) [µg/mL] | MIC (Mycoplasma genitalium [9]) [µg/mL] | MIC (Mycoplasma genitalium [10]) [µg/mL] | MIC50 (Mycoplasma genitalium [11]) [µg/mL] | MIC90 (Mycoplasma genitalium [11]) [µg/mL] | MIC (Mycoplasma genitalium [12]) [µg/mL] | MIC (Mycoplasma genitalium [13]) [µg/mL] | MIC (Mycoplasma genitalium [14]) [µg/mL] | MIC (Mycoplasma genitalium [15]) [µg/mL] | MIC (Mycoplasma genitalium [16]) [µg/mL] | MIC (Mycoplasma genitalium [17]) [µg/mL] | MIC (Mycoplasma genitalium [19]) [µg/mL] | MIC (Mycoplasma genitalium [20]) [µg/mL] | Compound | other results
1 | 0.125 | 0.125 | 1 | 0.125 | 1 | 1 | 0.125 | 1 | 0.125 | 0.125 | 1 | 2 | 0.125 | 1 | 0.125 | 0.125 | 0.125 | 1 | 0.125 | 1 | C[C@H]1COc2c(N3CCN(C)CC3)c(F)cc3c(=O)c(C(=O)O)cn1c23.C[C@H]1COc2c(N3CCN(C)CC3)c(F)cc3c(=O)c(C(=O)O)cn1c23.O [LEVOFLOXACIN] | MIC50 (Mycoplasma genitalium [18]): 1 µg/mL; MIC90 (Mycoplasma genitalium [18]): 4 µg/mL; MIC (Mycoplasma genitalium [21]): 0.125 µg/mL; MIC (Mycoplasma genitalium [22]): 0.125 µg/mL; MIC (Mycoplasma genitalium [23]): 0.125 µg/mL; MIC (Mycoplasma genitalium [24]): 0.125 µg/mL
2 | 0.063 (≈ 0.138 µM) | 0.063 (≈ 0.138 µM) | 0.031 (≈ 0.0678 µM) | 0.063 (≈ 0.138 µM) | 0.031 (≈ 0.0678 µM) | 0.031 (≈ 0.0678 µM) | 0.063 (≈ 0.138 µM) | 0.031 (≈ 0.0678 µM) | 0.063 (≈ 0.138 µM) | 0.063 (≈ 0.138 µM) | 0.125 (≈ 0.273 µM) | 0.25 (≈ 0.546 µM) | 0.063 (≈ 0.138 µM) | 0.031 (≈ 0.0678 µM) | 0.063 (≈ 0.138 µM) | 0.063 (≈ 0.138 µM) | 0.063 (≈ 0.138 µM) | 0.031 (≈ 0.0678 µM) | 0.063 (≈ 0.138 µM) | 0.031 (≈ 0.0678 µM) | CN(C)c1ccc(O)c2c1C[C@H]1C[C@H]3[C@H](N(C)C)C(O)=C(C(N)=O)C(=O)[C@@]3(O)C(O)=C1C2=O [MINOCYCLINE] | MIC (Mycoplasma genitalium [21]): 0.063 µg/mL (≈ 0.138 µM); MIC (Mycoplasma genitalium [22]): 0.063 µg/mL (≈ 0.138 µM); MIC (Mycoplasma genitalium [23]): 0.063 µg/mL (≈ 0.138 µM); MIC (Mycoplasma genitalium [24]): 0.063 µg/mL (≈ 0.138 µM)
3 | 0.016 (≈ 0.0399 µM) | 0.016 (≈ 0.0399 µM) | 0.063 (≈ 0.157 µM) | 0.016 (≈ 0.0399 µM) | 0.063 (≈ 0.157 µM) | 0.063 (≈ 0.157 µM) | 0.016 (≈ 0.0399 µM) | 0.063 (≈ 0.157 µM) | 0.016 (≈ 0.0399 µM) | 0.016 (≈ 0.0399 µM) | 0.063 (≈ 0.157 µM) | 0.125 (≈ 0.311 µM) | 0.016 (≈ 0.0399 µM) | 0.063 (≈ 0.157 µM) | 0.016 (≈ 0.0399 µM) | 0.016 (≈ 0.0399 µM) | 0.016 (≈ 0.0399 µM) | 0.063 (≈ 0.157 µM) | 0.016 (≈ 0.0399 µM) | 0.063 (≈ 0.157 µM) | COc1c(N2C[C@@H]3CCCN[C@@H]3C2)c(F)cc2c(=O)c(C(=O)O)cn(C3CC3)c12 [MOXIFLOXACIN] | MIC50 (Mycoplasma genitalium [18]): 0.063 µg/mL (≈ 0.157 µM); MIC90 (Mycoplasma genitalium [18]): 0.125 µg/mL (≈ 0.311 µM); MIC (Mycoplasma genitalium [21]): 0.016 µg/mL (≈ 0.0399 µM); MIC (Mycoplasma genitalium [22]): 0.016 µg/mL (≈ 0.0399 µM); MIC (Mycoplasma genitalium [23]): 0.016 µg/mL (≈ 0.0399 µM); MIC (Mycoplasma genitalium [24]): 0.016 µg/mL (≈ 0.0399 µM)
4 | 0.063 (≈ 0.142 µM) | 0.063 (≈ 0.142 µM) | 0.063 (≈ 0.142 µM) | 0.063 (≈ 0.142 µM) | 0.063 (≈ 0.142 µM) | 0.063 (≈ 0.142 µM) | 0.063 (≈ 0.142 µM) | 0.063 (≈ 0.142 µM) | 0.063 (≈ 0.142 µM) | 0.063 (≈ 0.142 µM) | 0.125 (≈ 0.281 µM) | 0.5 (≈ 1.13 µM) | 0.063 (≈ 0.142 µM) | 0.063 (≈ 0.142 µM) | 0.063 (≈ 0.142 µM) | 0.063 (≈ 0.142 µM) | 0.063 (≈ 0.142 µM) | 0.063 (≈ 0.142 µM) | 0.063 (≈ 0.142 µM) | 0.063 (≈ 0.142 µM) | CN(C)[C@@H]1C(O)=C(C(N)=O)C(=O)[C@@]2(O)C(O)=C3C(=O)c4c(O)cccc4[C@@](C)(O)[C@H]3C[C@@H]12 [TETRACYCLINE] | MIC50 (Mycoplasma genitalium [18]): 0.5 µg/mL (≈ 1.13 µM); MIC90 (Mycoplasma genitalium [18]): 2 µg/mL (≈ 4.5 µM); MIC (Mycoplasma genitalium [21]): 0.063 µg/mL (≈ 0.142 µM); MIC (Mycoplasma genitalium [22]): 0.063 µg/mL (≈ 0.142 µM); MIC (Mycoplasma genitalium [23]): 0.063 µg/mL (≈ 0.142 µM); MIC (Mycoplasma genitalium [24]): 0.063 µg/mL (≈ 0.142 µM)

Row | Compound | MIC (Mycoplasma genitalium [1]) [µg/mL] | MIC (Mycoplasma genitalium [2]) [µg/mL] | MIC (Mycoplasma genitalium [3]) [µg/mL] | MIC (Mycoplasma genitalium [4]) [µg/mL] | MIC (Mycoplasma genitalium [5]) [µg/mL] | MIC (Mycoplasma genitalium [6]) [µg/mL] | MIC (Mycoplasma genitalium [7]) [µg/mL] | MIC (Mycoplasma genitalium [8]) [µg/mL] | MIC (Mycoplasma genitalium [9]) [µg/mL] | MIC (Mycoplasma genitalium [10]) [µg/mL] | MIC50 (Mycoplasma genitalium [11]) [µg/mL] | MIC90 (Mycoplasma genitalium [11]) [µg/mL] | MIC (Mycoplasma genitalium [12]) [µg/mL] | MIC (Mycoplasma genitalium [13]) [µg/mL] | MIC (Mycoplasma genitalium [14]) [µg/mL] | MIC (Mycoplasma genitalium [15]) [µg/mL] | MIC (Mycoplasma genitalium [16]) [µg/mL] | MIC (Mycoplasma genitalium [17]) [µg/mL] | MIC (Mycoplasma genitalium [19]) [µg/mL] | MIC (Mycoplasma genitalium [20]) [µg/mL] | other results
5 | CCn1cc(C(=O)O)c(=O)c2cc(F)c(N3CCNCC3)cc21 [NORFLOXACIN] | 0.001 (≈ 0.00313 µM) | 0.001 (≈ 0.00313 µM) | 0.032 (≈ 0.1 µM) | 0.001 (≈ 0.00313 µM) | 0.032 (≈ 0.1 µM) | 0.032 (≈ 0.1 µM) | 0.001 (≈ 0.00313 µM) | 0.032 (≈ 0.1 µM) | 0.001 (≈ 0.00313 µM) | 0.001 (≈ 0.00313 µM) | 0.032 (≈ 0.1 µM) | 0.064 (≈ 0.2 µM) | 0.001 (≈ 0.00313 µM) | 0.032 (≈ 0.1 µM) | 0.001 (≈ 0.00313 µM) | 0.001 (≈ 0.00313 µM) | 0.001 (≈ 0.00313 µM) | 0.032 (≈ 0.1 µM) | 0.001 (≈ 0.00313 µM) | 0.032 (≈ 0.1 µM) | MIC50 (Mycoplasma genitalium [18]): ≥ 8 µg/mL; MIC90 (Mycoplasma genitalium [18]): ≥ 8 µg/mL; MIC (Mycoplasma genitalium [21]): 0.001 µg/mL (≈ 0.00313 µM); MIC (Mycoplasma genitalium [22]): 0.001 µg/mL (≈ 0.00313 µM); MIC (Mycoplasma genitalium [23]): 0.001 µg/mL (≈ 0.00313 µM); MIC (Mycoplasma genitalium [24]): 0.001 µg/mL (≈ 0.00313 µM)
6 | N[C@@H]1CN(c2c(F)cc3c(=O)c(C(=O)O)cn([C@@H]4C[C@@H]4F)c3c2Cl)CC12CC2 [SITAFLOXACIN ANHYDROUS] | 0.008 (≈ 0.0195 µM) | 0.008 (≈ 0.0195 µM) | 0.063 (≈ 0.154 µM) | 0.008 (≈ 0.0195 µM) | 0.063 (≈ 0.154 µM) | 0.063 (≈ 0.154 µM) | 0.008 (≈ 0.0195 µM) | 0.063 (≈ 0.154 µM) | 0.008 (≈ 0.0195 µM) | 0.008 (≈ 0.0195 µM) | 0.063 (≈ 0.154 µM) | 0.125 (≈ 0.305 µM) | 0.008 (≈ 0.0195 µM) | 0.063 (≈ 0.154 µM) | 0.008 (≈ 0.0195 µM) | 0.008 (≈ 0.0195 µM) | 0.008 (≈ 0.0195 µM) | 0.063 (≈ 0.154 µM) | 0.008 (≈ 0.0195 µM) | 0.063 (≈ 0.154 µM) | MIC50 (Mycoplasma genitalium [18]): 0.063 µg/mL (≈ 0.154 µM); MIC90 (Mycoplasma genitalium [18]): 0.125 µg/mL (≈ 0.305 µM); MIC (Mycoplasma genitalium [21]): 0.008 µg/mL (≈ 0.0195 µM); MIC (Mycoplasma genitalium [22]): 0.008 µg/mL (≈ 0.0195 µM); MIC (Mycoplasma genitalium [23]): 0.008 µg/mL (≈ 0.0195 µM); MIC (Mycoplasma genitalium [24]): 0.008 µg/mL (≈ 0.0195 µM)

— ChEMBL document CHEMBL1649265, “Antimicrobial susceptibilities of Mycoplasma genitalium strains examined by broth dilution and quantitative PCR” (2009)
